Assay results published in patent publication US20090170845A1, “USE OF IMIDAZO[2,1-b]-1,3,4-THIADIAZOLE-2-SULFONAMIDE COMPOUNDS TO TREAT NEUROPATHIC PAIN” (AEGERA THERAPEUTICS INC., priority 2006, published 2009).

Tests used:
Type in all cases: in vivo, rat
diabetic rats = test: Tactile allodynia (von Frey) in diabetic rats (DN); conditions: for neuropathic pain in diabetic rats: subcutaneous and/or oral delivery routes; for established neuropathic pain state in diabetic rats: Study 2, 10 mg/kg sc for 14 consecutive days
Description: The effects of compounds 150, 155, 157 and 158 on neuropathic pain responses characterized by tactile allodynia in diabetic rats were examined. A blinded reversal interventional paradigm was applied to evaluate the compounds, with therapy initiated when an aberrant pain state was clearly established. The effects of single or repeat (5 or two days per week) dosing regimen were assessed as described.
Rats (female Sprague Dawley; 250-270 g) were rendered diabetic with the commercially available agent streptozotocin and, were compared to vehicle-treated age matched controls, maintained for up to 6 weeks or more. Standard physiologic parameters (body weight and blood glucose) were recorded before, during and after the study to assess the metabolic status of animals.
Study 1: Both normal and diabetic groups were divided into two groups of 12 and received either vehicle or Compound 150 in 20% HPCD (10 mg/kg, sc) 5 days per week, for two weeks. Standard indices of sensory nerve function (tactile response threshold) were measured at baseline, prior to drug treatments, 48 hours after the 5th dose, and again prior to sacrifice (after the 10th dose) along with the standard physiologic parameters of body weight and plasma glucose.
Study 2: As per Study 1, except animals were treated with either compound 157 or 158 in 20% HPCD (10 mg/kg, sc) for 14 consecutive days.
Study 3: After 1 month of diabetes rats were treated subcutaneously with a single administration of 150, 155, 157, 154, 158 or 160 in 20% HPCD, as indicated; orally by gavage with a single administration of 157, or for 5 consecutive days by oral gavage with 157 and 158 to assess cumulative effects. The effect of the compounds was assessed 6 hours after the single or final administration.
Detailed methods for performing the behavioral tasks can be found in Journal of Neuroscience Methods (1994), 53: 55-63 and Methods in Molecular Medicine, Volume 99: Pain Research: methods and protocols, edited by Z. D. Luo, Humana Press Inc., Totowa, N.J.

[1] = test system: Complete Freund's Adjuvant (CFA) model of hyperalgesia in rats; test: CFA-induced tactile hyperalgesia in rats; conditions: for activity in CFA model of hyperalgesia: subcutaneous and/or oral delivery
From the text: Complete Freund's Adjuvant (CFA) was used to induce an inflammatory response, resulting in hyperalgesia. This model was chosen as a second experimental paradigm to obtain direct evidence for activity of the compounds against pain states because of its link with the induction of aberrant JNK phosphorylation, and evidence that this signaling cascade appears to, at least in part, mediate the pain response in this model (Doya et al., 2005).
Female Sprague Dawley rats were given either vehicle or Compound 150 (10 mg/kg, sc), 155 (1-10 mg/kg, sc), 157 (1-10 mg/kg, sc; 10-40 mg/kg, po) or 158 (10 mg/kg, sc) 6 hours prior to pain testing (compounds 150, 155, 157, and 158 were dissolved in 20% HPCD at 1-10 mg/mL). Compound 157 was also tested under conditions of repeat dosing where it was given at 5-20 mg/kg, po for five consecutive days. Under all treatment conditions, a single injection of CFA (50 uL) was given into the plantar surface of the right hind paw 1 hour prior to pain testing (i.e., 5 hours after the final administration of compound). Immediately after the CFA injection, animals were placed in testing chambers with a wire mesh bottom to habituate. Standard von Frey filaments were used to assess tactile response thresholds. The left, un-injected paw served as a control. Fibers were applied in the manner described by Dixon (1980) using the up-down method. The 50% withdrawal threshold (in grams) was determined for each paw.

[2] = test system: STZ treated diabetic rats; test: Sensory nerve conduction velocity (SNCV) in STZ diabetic rats, reversal paradigm, 2 months treatment
From the text: (§1) The effects of Compound 150 on nerve conduction (both motor and sensory) and axonal atrophy were examined in diabetic rats. A blinded reversal interventional paradigm was applied to evaluate two related small molecules on established experimental rat diabetic peripheral neuropathy of 2 months duration given over a subsequent 2 months, specifically evaluating motor and sensory conduction and sural axon caliber.
(§2) Male Sprague-Dawley rats (200-300 g) raised on sawdust covered plastic cages in a room with normal light dark timing and fed with standard rat chow were used for this experiment. The protocol was reviewed and approved by the University of Calgary Animal Care Committee adhering to the guidelines of the Canadian Council on Animal Care (CCAC). Diabetes was induced by a single intraperitoneal injection of streptozotocin (STZ) in citrate buffer (65 mg/kg) with age-matched controls given the buffer without STZ. Animals were used for the study if fasting glucose levels 5-7 days later were ≧16.0 mmol/L (One Touch FasTake strips, Johnson and Johnson).
(§3) Treatments were applied after 2 months of hyperglycemia for a duration of 2 months. Motor conduction recordings (1-3) were made prior to intervention then after […]. Sensory conduction utilized the approach of Parry and Kozu involving stimulation of the digital branches of the sciatic nerve and recording from the sciatic nerve at the level of the popliteal fossa with near nerve temperature maintained at 37° C. (4).
(§4) For statistical analysis, we studied mean values with standard errors of the means and compared values in the interventional groups with one way ANOVA or repeated measures ANOVA and post hoc Student's t-tests.

[3] = test system: STZ treated diabetic rats; test: Sural nerve myelinated axon morphometry in STZ diabetic rats; conditions: 5 of 7 days, 2 months of treatment
Description: as §2
At endpoint (4 months of diabetes, 2 months of treatment) the rats were euthanized and sural nerves harvested for morphometric studies. Sural nerves were fixed in cacodylate buffered glutaraldehyde, dehydrated with alcohols, fixed in osmium tetroxide then embedded in epon to generate one micron sections, as in previous work (5,6). Sections were photographed under oil immersion (1000×) to sample the entire sural nerve. Images were analyzed using Scion image offline to measure axon area for 100 myelinated axons for each sural nerve fascicle. […] For sural nerves with more than one fascicle, each fascicle underwent separate analysis and a mean axon area was calculated for the rat from the fascicles. […]

[4] = test system: STZ treated diabetic rats; test: Motor nerve conduction velocity (MNCV) in STZ diabetic rats, reversal paradigm, 2 months treatment
From the text: as §1, §2, §3, §4

[5] = sc, acute single, 6 hours after administration
[6] = po, 5 d loading (5 consecutive days)
[7] = po, 5 d loading (repeated dosing)

| SMILES | DN (effect on tactile allodynia in diabetic rats) (diabetic rats; [5]) | neuropathic pain in diabetic rats (diabetic rats) | CFA (effect on tactile hyperalgesia) ([1]; sc, acute single) | activity in CFA model of hyperalgesia [1] | DN, effective dose (diabetic rats; sc, acute single) [mg/kg] | established neuropathic pain state in diabetic rats (diabetic rats) | DN (effect on tactile allodynia in diabetic rats) (diabetic rats; [6]) | DN, effective dose (diabetic rats; [7]) [mg/kg] | also measured |
| --- | --- | --- | --- | --- | --- | --- | --- | --- | --- |
| O=S(=O)([N-][Na+])c1nn2cc(-c3ccc(Cl)c(Cl)c3Cl)nc2s1 [Compound 154] | Effects of single administrations were observed and +ve | can reverse neuropathic pain | – | – | – | – | – | – | – |
| O=S(=O)([N-][Na+])c1nn2cc(-c3ccc(-c4cccc(C(F)(F)F)c4)cc3)nc2s1 [Compound 150] | Effects of single administrations were observed and +ve | – | attenuated CFA-induced tactile hyperalgesia and +ve | active | 10 | – | – | – | SNCV v vehicle treated diabetics at 2 months ([2]; 5 days/week): significantly better than vehicle treated diabetics; SNCV change from baseline to 2 months (within diabetic groups) ([2]; diabetic rats, 2 months of treatment): did not significantly change from baseline; SNCV, diabetics v normals after 2 months of treatment ([2]; dosed 2 days per week): did not confer similar protection; SNCV, diabetics v normals after 2 months of treatment ([2]; dosed 5 days per week): not significantly different from normals; SNCV v vehicle treated diabetics at 2 months ([2]; twice per week): did not afford similar protection; mean area of all measured sural myelinated axons, diabetics given compound vs. vehicle [3]: rise in mean axonal area; mean axonal area of large (greater than 9 microns squared) myelinated axons, diabetics given compound vs. vehicle [3]: significant increase in mean axonal area; MNCV v vehicle treated diabetics at 2 months ([4]; 2×/week): significantly better than vehicle treated diabetics; MNCV change from baseline to 2 months (within diabetic groups) ([4]; 2 days per week): identical effects as the drug given 5 days per week; MNCV, diabetics v normals ([4]; 2 days per week): did not restore MNCV to normal; MNCV change from baseline to 2 months (within diabetic groups) ([4]; 5 days per week): significant improvement in MNCV; MNCV v vehicle treated diabetics at 2 months ([4]; 5 days per week): significantly better than vehicle treated diabetics; MNCV, diabetics v normals ([4]; 5 days per week): did not restore MNCV to normal; response to tactile stimulation with multiple dosing (diabetic rats; Study 1, diabetic rats, 10 mg/kg sc 5 days per week for two weeks): consistently responding within the normal range; tactile allodynia six hours after the initial treatment (diabetic rats; Study 1, diabetic rats, 10 mg/kg sc in 20% HPCD): tactile allodynia was reversed |
| O=S(=O)([N-][Na+])c1nn2cc(-c3ccc4c(c3)OCCCO4)nc2s1 [Compound 155] | Effects of single administrations were observed and +ve | can reverse neuropathic pain | attenuated CFA-induced tactile hyperalgesia and +ve | active | ≤ 10 | – | – | – | – |
| O=S(=O)([N-][Na+])c1nn2cc(-c3cc(C(F)(F)F)ccc3Cl)nc2s1 [Compound 160] | Effects of single administrations were observed and +ve | can reverse neuropathic pain | – | – | 10 | – | – | – | – |
| CC(C)(C)c1ccc(-c2cn3nc(S(=O)(=O)[N-][Na+])sc3n2)cc1 [Compound 158] | Effects of single administrations were observed and +ve | can reverse neuropathic pain | attenuated CFA-induced tactile hyperalgesia and +ve | active | ≤ 10 | reversed an established neuropathic pain state | equivalent efficacy was observed and +ve | 5 to 10 | CFA, effective dose ([1]; sc, acute single): ≤ 10 mg/kg |
| COCCOCCOc1ccc(-c2cn3nc(S(=O)(=O)[N-][Na+])sc3n2)cc1 [Compound 157] | Effects of single administrations were observed | can reverse neuropathic pain | attenuated CFA-induced tactile hyperalgesia and +ve | active | <10 | reversed an established neuropathic pain state | equivalent efficacy was observed and +ve | 5 to 10 | CFA (effect on tactile hyperalgesia) ([1]; po, 5 d loading): +ve; CFA, effective dose ([1]; po, 5 d loading): 5 to 10 mg; CFA (effect on tactile hyperalgesia) ([1]; po, acute single): efficacious and +ve; CFA, effective dose ([1]; po, acute single): 20 to 40 mg/kg; CFA, required dose range ([1]; po, daily dosing for 5 consecutive days): 5 to 10 mg/kg; duration of effect on pain after a single administration (diabetic rats; diabetic rats, single administration): 24 h; DN, effective dose (diabetic rats; po, 5 d loading): 5 to 10 mg; DN, effective dose (diabetic rats; po, acute single): 10 to 20 mg/kg; DN (effect on tactile allodynia in diabetic rats) (diabetic rats; po, acute single, 6 hours after administration): Effects of single administrations were observed and +ve |
